ChEMBL document CHEMBL3600353, “In Vitro Activity of Epigallocatechin Gallate and Quercetin Alone and in Combination versus Clinical Isolates of Methicillin-Resistant Staphylococcus aureus” (2015)
Active and inactive are the calls of the source. No cut-off for these calls is given here.

Tests used:
Staphylococcus aureus [1] = assay: Antibacterial activity against methicillin-resistant Staphylococcus aureus isolate 6 by disk diffusion assay; assay type: functional
Staphylococcus aureus [2] = assay: Antibacterial activity against methicillin-resistant Staphylococcus aureus isolate 4 after 24 hrs by checkerboard assay in presence of quercetin; assay type: functional
Staphylococcus aureus [3] = assay: Antibacterial activity against methicillin-resistant Staphylococcus aureus isolate 5 assessed as reduction of epigallocatechin gallate MIC after 24 hrs by checkerboard assay in presence of quercetin; assay type: functional; conditions: isolate 5, 24 h
Staphylococcus aureus [4] = assay: Antibacterial activity against methicillin-resistant Staphylococcus aureus isolate 8 assessed as reduction of epigallocatechin gallate MIC after 24 hrs by checkerboard assay in presence of quercetin; assay type: functional; conditions: isolate 8, 24 h
Staphylococcus aureus [5] = assay: Antibacterial activity against vancomycin-intermediate resistant Staphylococcus aureus Mu50 at 0.56 mM after 24 hrs by time kill assay; assay type: functional, organism-based
Staphylococcus aureus [6] = assay: Antibacterial activity against methicillin-resistant Staphylococcus aureus isolate 2 after 24 hrs by checkerboard assay; assay type: functional; conditions: isolate 2, 24 h
Staphylococcus aureus [7] = assay: Antibacterial activity against methicillin-resistant Staphylococcus aureus NCTC 12493 at 0.28 mM after 4 hrs by time kill assay; assay type: functional, organism-based
Staphylococcus aureus [8] = assay: Antibacterial activity against methicillin-resistant Staphylococcus aureus isolate 7 assessed as reduction of epigallocatechin gallate MIC after 24 hrs by checkerboard assay in presence of quercetin; assay type: functional; conditions: isolate 7, 24 h
Staphylococcus aureus [9] = assay: Antibacterial activity against methicillin-resistant Staphylococcus aureus isolate 2 after 24 hrs by checkerboard assay in presence of quercetin; assay type: functional
Staphylococcus aureus [10] = assay: Antibacterial activity against methicillin-resistant Staphylococcus aureus isolate 3 by disk diffusion assay; assay type: functional
Staphylococcus aureus [11] = assay: Antibacterial activity against methicillin-resistant Staphylococcus aureus isolate 8 by disk diffusion assay; assay type: functional
Staphylococcus aureus [12] = assay: Antibacterial activity against methicillin-resistant Staphylococcus aureus NCTC 12493 after 24 hrs by checkerboard assay; assay type: functional; conditions: NCTC 12493, 24 h
Staphylococcus aureus [13] = assay: Antibacterial activity against methicillin-sensitive Staphylococcus aureus ATCC 25923 at 0.56 mM after 24 hrs by time kill assay in presence of 0.85 mM of quercetin; assay type: functional, organism-based
Staphylococcus aureus [14] = assay: Antibacterial activity against methicillin-sensitive Staphylococcus aureus ATCC 25923 at 0.28 mM after 24 hrs by time kill assay in presence of 0.2 mM of quercetin; assay type: functional, organism-based
Staphylococcus aureus [15] = assay: Antibacterial activity against methicillin-resistant Staphylococcus aureus isolate 4 after 24 hrs by checkerboard assay; assay type: functional; conditions: isolate 4, 24 h
Staphylococcus aureus [16] = assay: Antibacterial activity against methicillin-resistant Staphylococcus aureus NCTC 12493 after 24 hrs by time kill assay; assay type: functional, organism-based
Staphylococcus aureus [17] = assay: Antibacterial activity against methicillin-sensitive Staphylococcus aureus ATCC 25923 at 0.28 mM after 24 hrs by time kill assay in presence of 0.42 mM of quercetin; assay type: functional, organism-based
Staphylococcus aureus [18] = assay: Antibacterial activity against vancomycin-intermediate resistant Staphylococcus aureus Mu50 after 24 hrs by time kill assay; assay type: functional, organism-based
Staphylococcus aureus [19] = assay: Antibacterial activity against methicillin-resistant Staphylococcus aureus isolate 2 by disk diffusion assay; assay type: functional
Staphylococcus aureus [20] = assay: Antibacterial activity against Staphylococcus aureus ATCC 25923 assessed as reduction of epigallocatechin gallate MIC after 24 hrs by checkerboard assay in presence of quercetin; assay type: functional; conditions: ATCC 25923, 24 h
Staphylococcus aureus [21] = assay: Antibacterial activity against methicillin-resistant Staphylococcus aureus isolate 7 after 24 hrs by checkerboard assay; assay type: functional; conditions: isolate 7, 24 h
Staphylococcus aureus [22] = assay: Antibacterial activity against methicillin-resistant Staphylococcus aureus isolate 7 by disk diffusion assay; assay type: functional
Staphylococcus aureus [23] = assay: Antibacterial activity against methicillin-resistant Staphylococcus aureus isolate 1 after 24 hrs by checkerboard assay; assay type: functional; conditions: isolate 1, 24 h
Staphylococcus aureus [24] = assay: Antibacterial activity against methicillin-sensitive Staphylococcus aureus ATCC 25923 at 0.56 mM after 24 hrs by time kill assay in presence of 0.42 mM of quercetin; assay type: functional, organism-based
Staphylococcus aureus [25] = assay: Antibacterial activity against methicillin-resistant Staphylococcus aureus isolate 3 assessed as reduction of epigallocatechin gallate MIC after 24 hrs by checkerboard assay in presence of quercetin; assay type: functional; conditions: isolate 3, 24 h
Staphylococcus aureus [26] = assay: Antibacterial activity against methicillin-resistant Staphylococcus aureus isolate 6 after 24 hrs by checkerboard assay in presence of quercetin; assay type: functional
Staphylococcus aureus [27] = assay: Antibacterial activity against methicillin-resistant Staphylococcus aureus isolate 4 assessed as reduction of epigallocatechin gallate MIC after 24 hrs by checkerboard assay in presence of quercetin; assay type: functional; conditions: isolate 4, 24 h
Staphylococcus aureus [28] = assay: Antibacterial activity against methicillin-sensitive Staphylococcus aureus ATCC 25923 at 0.56 mM after 24 hrs by time kill assay; assay type: functional, organism-based
Staphylococcus aureus [29] = assay: Antibacterial activity against methicillin-resistant Staphylococcus aureus isolate 5 by disk diffusion assay; assay type: functional
Staphylococcus aureus [30] = assay: Antibacterial activity against methicillin-resistant Staphylococcus aureus NCTC 12493 assessed as log reduction of colony forming unit at 0.28 mM after 2 hrs; assay type: functional, organism-based
Staphylococcus aureus [31] = assay: Antibacterial activity against methicillin-resistant Staphylococcus aureus NCTC 12493 at 0.28 mM after 24 hrs by time kill assay; assay type: functional, organism-based
Staphylococcus aureus [32] = assay: Antibacterial activity against methicillin-resistant Staphylococcus aureus isolate 1 after 24 hrs by checkerboard assay in presence of quercetin; assay type: functional
Staphylococcus aureus [33] = assay: Antibacterial activity against vancomycin-intermediate resistant Staphylococcus aureus Mu50 after 24 hrs by checkerboard assay; assay type: functional; conditions: Mu50, 24 h
Staphylococcus aureus [34] = assay: Antibacterial activity against vancomycin-intermediate resistant Staphylococcus aureus Mu50 at 0.56 mM after 4 hrs by time kill assay; assay type: functional, organism-based
Staphylococcus aureus [35] = assay: Antibacterial activity against methicillin-resistant Staphylococcus aureus isolate 9 assessed as reduction of epigallocatechin gallate MIC after 24 hrs by checkerboard assay in presence of quercetin; assay type: functional; conditions: isolate 9, 24 h
Staphylococcus aureus [36] = assay: Antibacterial activity against methicillin-resistant Staphylococcus aureus isolate 8 after 24 hrs by checkerboard assay in presence of quercetin; assay type: functional
Staphylococcus aureus [37] = assay: Antibacterial activity against vancomycin-intermediate resistant Staphylococcus aureus Mu50 assessed as log reduction of colony forming unit at 0.28 mM after 24 hrs; assay type: functional, organism-based
Staphylococcus aureus [38] = assay: Antibacterial activity against methicillin-resistant Staphylococcus aureus isolate 9 by disk diffusion assay; assay type: functional
Staphylococcus aureus [39] = assay: Antibacterial activity against methicillin-resistant Staphylococcus aureus isolate 3 after 24 hrs by checkerboard assay; assay type: functional; conditions: isolate 3, 24 h
Staphylococcus aureus [40] = assay: Antibacterial activity against Staphylococcus aureus ATCC 25923 after 24 hrs by checkerboard assay; assay type: functional; conditions: ATCC 25923, 24 h
Staphylococcus aureus [41] = assay: Antibacterial activity against methicillin-sensitive Staphylococcus aureus ATCC 25923 at 0.56 mM after 4 hrs by time kill assay; assay type: functional, organism-based
Staphylococcus aureus [42] = assay: Antibacterial activity against methicillin-resistant Staphylococcus aureus isolate 3 after 24 hrs by checkerboard assay in presence of quercetin; assay type: functional
Staphylococcus aureus [43] = assay: Antibacterial activity against methicillin-resistant Staphylococcus aureus isolate 9 after 24 hrs by checkerboard assay in presence of quercetin; assay type: functional
Staphylococcus aureus [44] = assay: Antibacterial activity against methicillin-resistant Staphylococcus aureus isolate 8 after 24 hrs by checkerboard assay; assay type: functional; conditions: isolate 8, 24 h
Staphylococcus aureus [45] = assay: Antibacterial activity against methicillin-resistant Staphylococcus aureus NCTC 12493 assessed as log reduction of colony forming unit at 0.28 mM after 24 hrs; assay type: functional, organism-based
Staphylococcus aureus [46] = assay: Antibacterial activity against methicillin-resistant Staphylococcus aureus isolate 1 by disk diffusion assay; assay type: functional
Staphylococcus aureus [47] = assay: Antibacterial activity against methicillin-resistant Staphylococcus aureus isolate 7 after 24 hrs by checkerboard assay in presence of quercetin; assay type: functional
Staphylococcus aureus [48] = assay: Antibacterial activity against methicillin-resistant Staphylococcus aureus NCTC 12493 assessed as reduction of epigallocatechin gallate MIC after 24 hrs by checkerboard assay in presence of quercetin; assay type: functional; conditions: NCTC 12493, 24 h
Staphylococcus aureus [49] = assay: Antibacterial activity against methicillin-resistant Staphylococcus aureus isolate 2 assessed as reduction of epigallocatechin gallate MIC after 24 hrs by checkerboard assay in presence of quercetin; assay type: functional; conditions: isolate 2, 24 h
Staphylococcus aureus [50] = assay: Antibacterial activity against methicillin-resistant Staphylococcus aureus NCTC 12493 after 24 hrs by checkerboard assay in presence of quercetin; assay type: functional
Staphylococcus aureus [51] = assay: Antibacterial activity against Staphylococcus aureus ATCC 25923 after 24 hrs by checkerboard assay in presence of quercetin; assay type: functional
Staphylococcus aureus [52] = assay: Antibacterial activity against methicillin-resistant Staphylococcus aureus isolate 5 after 24 hrs by checkerboard assay; assay type: functional; conditions: isolate 5, 24 h
Staphylococcus aureus [53] = assay: Antibacterial activity against methicillin-resistant Staphylococcus aureus NCTC 12493 assessed as log reduction of colony forming unit at 0.28 mM after 4 hrs; assay type: functional, organism-based
Staphylococcus aureus [54] = assay: Antibacterial activity against methicillin-resistant Staphylococcus aureus isolate 9 after 24 hrs by checkerboard assay; assay type: functional; conditions: isolate 9, 24 h
Staphylococcus aureus [55] = assay: Antibacterial activity against methicillin-resistant Staphylococcus aureus isolate 1 assessed as reduction of epigallocatechin gallate MIC after 24 hrs by checkerboard assay in presence of quercetin; assay type: functional; conditions: isolate 1, 24 h
Staphylococcus aureus [56] = assay: Antibacterial activity against methicillin-resistant Staphylococcus aureus isolate 4 by disk diffusion assay; assay type: functional
Staphylococcus aureus [57] = assay: Antibacterial activity against methicillin-resistant Staphylococcus aureus isolate 5 after 24 hrs by checkerboard assay in presence of quercetin; assay type: functional
Staphylococcus aureus [58] = assay: Antibacterial activity against methicillin-resistant Staphylococcus aureus isolate 6 after 24 hrs by checkerboard assay; assay type: functional; conditions: isolate 6, 24 h
Staphylococcus aureus [59] = assay: Antibacterial activity against vancomycin-intermediate resistant Staphylococcus aureus Mu50 assessed as reduction of epigallocatechin gallate MIC after 24 hrs by checkerboard assay in presence of quercetin; assay type: functional; conditions: Mu50, 24 h
Staphylococcus aureus [60] = assay: Antibacterial activity against vancomycin-intermediate resistant Staphylococcus aureus Mu50 after 24 hrs by checkerboard assay in presence of quercetin; assay type: functional
Staphylococcus aureus [61] = assay: Antibacterial activity against methicillin-sensitive Staphylococcus aureus ATCC 25923 after 24 hrs by time kill assay; assay type: functional, organism-based
Staphylococcus aureus [62] = assay: Antibacterial activity against methicillin-resistant Staphylococcus aureus isolate 6 assessed as reduction of epigallocatechin gallate MIC after 24 hrs by checkerboard assay in presence of quercetin; assay type: functional; conditions: isolate 6, 24 h

## O=C(O[C@@H]1Cc2c(O)cc(O)cc2O[C@@H]1c1cc(O)c(O)c(O)c1)c1cc(O)c(O)c(O)c1 [EPIGALOCATECHIN GALLATE]
Staphylococcus aureus [1]
  inhibition zone (IZ): >=19 mm
Staphylococcus aureus [2]
  fractional inhibitory concentration index (FICI): 0.28
Staphylococcus aureus [3]
  MIC: 70 µM
Staphylococcus aureus [4]
  MIC: 70 µM
Staphylococcus aureus [5]
  Activity: Active
Staphylococcus aureus [6]
  MIC: 280 µM
Staphylococcus aureus [7]
  Activity: Active
Staphylococcus aureus [8]
  MIC: 70 µM
Staphylococcus aureus [9]
  fractional inhibitory concentration index (FICI): 0.2
Staphylococcus aureus [10]
  inhibition zone (IZ): >=19 mm
Staphylococcus aureus [11]
  inhibition zone (IZ): >=19 mm
Staphylococcus aureus [12]
  MIC: 140 µM
Staphylococcus aureus [13]
  Activity: Active
Staphylococcus aureus [14]
  Activity: Active
Staphylococcus aureus [15]
  MIC: 280 µM
Staphylococcus aureus [16]
  Activity: Active
Staphylococcus aureus [17]
  Activity: Active
Staphylococcus aureus [18]
  Activity: Active
Staphylococcus aureus [19]
  inhibition zone (IZ): >=19 mm
Staphylococcus aureus [20]
  MIC: 20 µM
Staphylococcus aureus [21]
  MIC: 280 µM
Staphylococcus aureus [22]
  inhibition zone (IZ): >=19 mm
Staphylococcus aureus [23]
  MIC: 280 µM
Staphylococcus aureus [24]
  Activity: Active
Staphylococcus aureus [25]
  MIC: 70 µM
Staphylococcus aureus [26]
  fractional inhibitory concentration index (FICI): 0.31
Staphylococcus aureus [27]
  MIC: 70 µM
Staphylococcus aureus [28]
  Activity: Active
Staphylococcus aureus [29]
  inhibition zone (IZ): >=19 mm
Staphylococcus aureus [30]
  Activity: Active
Staphylococcus aureus [31]
  Activity: Active
Staphylococcus aureus [32]
  fractional inhibitory concentration index (FICI): 0.31
Staphylococcus aureus [33]
  MIC: 280 µM
Staphylococcus aureus [34]
  Activity: Active
Staphylococcus aureus [35]
  MIC: 70 µM
Staphylococcus aureus [36]
  fractional inhibitory concentration index (FICI): 0.31
Staphylococcus aureus [37]
  Activity: Active
Staphylococcus aureus [38]
  inhibition zone (IZ): >=19 mm
Staphylococcus aureus [39]
  MIC: 280 µM
Staphylococcus aureus [40]
  MIC: 560 µM
Staphylococcus aureus [41]
  Activity: Active
Staphylococcus aureus [42]
  fractional inhibitory concentration index (FICI): 0.31
Staphylococcus aureus [43]
  fractional inhibitory concentration index (FICI): 0.28
Staphylococcus aureus [44]
  MIC: 280 µM
Staphylococcus aureus [45]
  Activity: Active
Staphylococcus aureus [46]
  inhibition zone (IZ): 8 mm
Staphylococcus aureus [47]
  fractional inhibitory concentration index (FICI): 0.31
Staphylococcus aureus [48]
  MIC: 4 µM
Staphylococcus aureus [49]
  MIC: 40 µM
Staphylococcus aureus [50]
  fractional inhibitory concentration index (FICI): 0.06
Staphylococcus aureus [51]
  fractional inhibitory concentration index (FICI): 0.07
Staphylococcus aureus [52]
  MIC: 280 µM
Staphylococcus aureus [53]
  Activity: Active
Staphylococcus aureus [54]
  MIC: 280 µM
Staphylococcus aureus [55]
  MIC: 70 µM
Staphylococcus aureus [56]
  inhibition zone (IZ): >=19 mm
Staphylococcus aureus [57]
  fractional inhibitory concentration index (FICI): 0.28
Staphylococcus aureus [58]
  MIC: 280 µM
Staphylococcus aureus [59]
  MIC: 20 µM
Staphylococcus aureus [60]
  fractional inhibitory concentration index (FICI): 0.09
Staphylococcus aureus [61]
  Activity: Active
Staphylococcus aureus [62]
  MIC: 70 µM
